Laboratory results from US8557848B2, “4,5-ring annulated indole derivatives for treating or preventing of HCV and related viral infections” (Merck Sharp & Dohme Corp., priority 2006, dated 2013).
Like-named read-outs stand apart in the source and are kept apart here.

Key:
[1] = biological target: T1, HCV NS5B polymerase (NS5BΔCT21, from HCV-Con 1 isolate, genotype 1b) (Hepatitis C virus genotype 1b, UniProt Q9WMX2); assay: HCV NS5B Polymerase Inhibition Assay; format: biochemical
T1 construct: A soluble C-terminal 21-amino acid truncated NS5B enzyme form; polyhistidine (C); made in house; host or cells: Escherichia coli
From the text: A chemically synthesized 75-mer version, designated DCoH75, whose sequence matches the 3′-end of D-RNA, and DCoH75ddC, where the 3′-terminal cytidine of DCoH75 is replaced by dideoxycytidine, were used for assaying the NS5B enzyme activity as described in Ferrari et al., 12th International Symposium on HCV and Related Viruses, P-306 (2005). The sequence of the template RNA was: 5′-UGUGCCGGUCUUUCUGAACGGGAUAUAAACCUGGCCAGCUUCAUCGAACAAGUUGCCGUGUCUAUGACAUAGAUC-3′. A soluble C-terminal 21-amino acid truncated NS5B enzyme form (NS5BΔCT21, from HCV-Con 1 isolate, genotype 1b, Genbank accession number AJ238799) was produced and purified from Escherichia coli as C-terminal polyhistidine-tagged fusion protein as described in Ferrari et al., J. Virol. 73:1649-1654 (1999). A typical assay contained 20 mM Hepes pH 7.3, 10 mM MgCl2, 60 mM NaCl, 100 μg/ml BSA, 20 units/ml RNasin, 7.5 mM DTT, 0.1 μM ATP/GTP/UTP, 0.026 μM CTP, 0.25 mM GAU, 0.03 μM RNA template, 20 μCi/ml [^33P]-CTP, 2% DMSO, and 30 or 150 nM NS5B enzyme. Reactions were incubated at 22° C. for 2 hours, then stopped by adding 150 mM EDTA, washed in DE81 filter plate in 0.5M di-basic sodium phosphate buffer, pH 7.0, and counted using Packard TopCount after the addition of scintillation cocktail. Polynucleotide synthesis was monitored by the incorporation of radiolabeled CTP. The effect of the Compounds of Formula (I) on the polymerase activity was evaluated by adding various concentrations of a Compound of Formula (I), typically in 10 serial 2-fold dilutions, to the assay mixture. The starting concentrations ranged from 200 μM to 1 μM. An IC50 value for the inhibitor, defined as the compound concentration that provides 50% inhibition of polymerase activity, was determined by fitting the cpm data to the Hill equation Y=100/(1+10^((LogIC50-X)*HillSlope)), where X is the logarithm of compound concentration, and Y is the % inhibition. Ferrari et al., 12th International Symposium on HCV and Related Viruses, P-306 (2005) described in detail this assay procedure. It should be noted that such an assay as described is exemplary and not intended to limit the scope of the invention. The skilled practitioner can appreciate that modifications including but not limited to RNA template, primer, nucleotides, NS5B polymerase form, buffer composition, can be made to develop similar assays that yield the same result for the efficacy of the compounds and compositions described in the invention.
NS5B polymerase inhibition data for selected Compounds of Formula (I) is provided below in Table 2, wherein the compound numbers correspond to the compound numbering set forth in the above specification.

[2] = system: HCV replicon cells (replicon RNA level); assay: Cell-Based HCV Replicon Assay; conditions: Hepatitis C virus, 72 h; replicon RNA level by real time PCR (Taqman), cells harvested on day 3; read-out: EC50
Procedure: To measure cell-based anti-HCV activity of the a Compound of Formula (I), replicon cells were seeded at 5000 cells/well in 96-well collagen I-coated Nunc plates in the presence of the Compound of Formula (I). Various concentrations of a Compound of Formula (I), typically in 10 serial 2-fold dilutions, were added to the assay mixture, with the starting concentration ranging from 250 μM to 1 μM. The final concentration of DMSO was 0.5%, fetal bovine serum was 5%, in the assay media. Cells were harvested on day 3 by the addition of 1× cell lysis buffer (Ambion cat #8721). The replicon RNA level was measured using real time PCR (Taqman assay). The amplicon was located in 5B. The PCR primers were: 5B.2F, ATGGACAGGCGCCCTGA; 5B.2R, […]; the probe sequence was FAM-labeled CACGCCATGCGCTGCGG. GAPDH RNA was used as endogenous control and was amplified in the same reaction as NS5B (multiplex PCR) using primers and VIC-labeled probe recommended by the manufacturer (PE Applied Biosystem). The real-time RT-PCR reactions were run on ABI PRISM 7900HT Sequence Detection System using the following program: 48° C. for 30 min, 95° C. for 10 min, 40 cycles of 95° C. for 15 sec, 60° C. for 1 min. The ΔCT values (CT5B-CTGAPDH) were plotted against the concentration of test compound and fitted to the sigmoid dose-response model using XLfit4 (MDL). EC50 was defined as the concentration of inhibitor necessary to achieve ΔCT=1 over the projected baseline; EC90 the concentration necessary to achieve ΔCT=3.2 over the baseline. Alternatively, to quantitate the absolute amount of replicon RNA, a standard curve was established by including serially diluted T7 transcripts of replicon RNA in the Taqman assay. All Taqman reagents were from PE Applied Biosystems. Such an assay procedure was described in detail in e.g. Malcolm et al., Antimicrobial Agents and Chemotherapy 50: 1013-1020 (2006).
HCV Replicon assay data for selected Compounds of Formula (I) is provided below in Table 1, wherein the compound numbers correspond to the compound numbering set forth in the above specification.

[3] = NS5B polymerase inhibition, [33P]-CTP incorporation, 22° C. for 2 hours, read-out: IC50

Row | Compound | IC50 [1, 3] [nM] | EC50 [2] [nM] | IC50 [1] [nM]
1 | COc1cc(Cn2c(C(=O)OCOC(=O)C(C)(C)C)c(-c3cccn(COC(=O)C(C)(C)C)c3=O)c3c4occc4c(F)cc32)c(F)cn1 [Compound 226] | > 100 | < 500 | 
2 | COc1ccc(S(=O)(=O)NC(=O)c2c(-c3ccc[nH]c3=O)c3c4ccoc4ccc3n2Cc2ccc(F)cc2F)cc1 [Compound 10] | 25 to 100 | > 1500 | 
3 | O=C(O)c1c(-c2ccc[nH]c2=O)c2c3occc3ccc2n1Cc1cc2ccccc2nc1Cl [Compound 116] | < 25 | < 500 | 
4 | Nc1nc2cc(Cn3c(C(=O)O)c(-c4ccc[nH]c4=O)c4c5occc5c(F)cc43)ccc2[nH]1 [Compound 101] | < 25 | < 500 | 
5 | O=C(O)c1c(-c2ccc[nH]c2=O)c2c3occc3ccc2n1Cc1ccc(F)cc1F [Compound 16] | < 25 | 500 to 1500 | 
6 | O=C(O)c1c(-c2ccc[nH]c2=O)c2c3occc3c(F)cc2n1Cc1cc(=O)[nH]cc1Br [Compound 135] | < 25 | < 500 | 
7 | Cc1cccc(Cn2c(C(=O)NS(=O)(=O)C3CC3)c(-c3ccc[nH]c3=O)c3c4occc4ccc32)c1F [Compound 155] | < 25 | < 500 | 
8 | CS(=O)(=O)NC(=O)c1c(-c2ccc[nH]c2=O)c2c3occc3c(F)cc2n1Cc1cc2ccccc2nc1Cl [Compound 194] | < 25 | < 500 | 
9 | CS(=O)(=O)NC(=O)c1c(-c2ccc[nH]c2=O)c2c3c(ccc2n1Cc1cc(F)ccc1F)CCO3 [Compound 59] |  | < 500 | < 25
10 | Cc1cc2ccc3c(c(-c4ccc[nH]c4=O)c(C(=O)O)n3Cc3ccccc3F)c2o1 [Compound 76] | 25 to 100 | > 1500 | 
11 | O=C(NS(=O)(=O)C1CC1)c1c(-c2ccc[nH]c2=O)c2c3occc3c(F)cc2n1Cc1cc([N+](=O)[O-])ccc1F [Compound 198] | < 25 | < 500 | 
12 | Nc1n[nH]c2cc(F)c(Cn3c(C(=O)O)c(-c4ccc[nH]c4=O)c4c5occc5c(F)cc43)cc12 [Compound 80] |  | < 500 | < 25
13 | O=C(NC1CC1)c1ccc(F)c(Cn2c(C(=O)O)c(-c3ccc[nH]c3=O)c3c4occc4c(F)cc32)c1 [Compound 141] | < 25 | > 1500 | 
14 | CS(=O)(=O)NC(=O)c1c(-c2ccc[nH]c2=O)c2c3occc3ccc2n1Cc1cc(C(N)=O)ccc1F [Compound 161] | < 25 | < 500 | 
15 | NC(=O)c1ccc(F)c(Cn2c(C(=O)NS(=O)(=O)C3CC3)c(-c3ccc[nH]c3=O)c3c4occc4c(F)cc32)c1 [Compound 195] | < 25 | < 500 | 
16 | CC(C)S(=O)(=O)NC(=O)c1c(-c2ccc[nH]c2=O)c2c3occc3c(F)cc2n1Cc1csc(C(N)=O)c1 [Compound 186] | < 25 | < 500 | 
17 | CC(C)S(=O)(=O)NC(=O)c1c(-c2ccc[nH]c2=O)c2c3occc3c(F)cc2n1Cc1ccccc1F [Compound 163] | < 25 | < 500 | 
18 | CC(C)S(=O)(=O)NC(=O)c1c(-c2ccc[nH]c2=O)c2c3occc3ccc2n1Cc1cc(F)ccc1F [Compound 63] | < 25 | < 500 | 
19 | Nc1cc(Cn2c(C(=O)O)c(-c3ccc[nH]c3=O)c3c4ncsc4ccc32)ccn1 [Compound 14] | < 25 | 500 to 1500 | 

Row | Compound | IC50 [1, 3] [nM] | EC50 [2] [nM] | IC50 [1] [nM]
20 | CS(=O)(=O)NC(=O)c1c(-c2ccc[nH]c2=O)c2c3occc3ccc2n1Cc1cc2ccccc2nc1Cl [Compound 180] | < 25 | < 500 | 
21 | O=C(O)c1c(-c2ccc[nH]c2=O)c2c3occc3c(F)cc2n1Cc1ccccc1F [Compound 79] | < 25 | < 500 | 
22 | O=C(NS(=O)(=O)C1CC1)c1c(-c2ccc[nH]c2=O)c2c3occc3cc(F)c2n1Cc1cc(F)ccc1F [Compound 178] | < 25 | < 500 | 
23 | CS(=O)(=O)NC(=O)c1c(-c2ccc[nH]c2=O)c2c3c(c(F)cc2n1Cc1cc2ccccc2nc1Cl)CCO3 [Compound 196] | < 25 | < 500 | 
24 | Cc1ccc(Cn2c(C(=O)NS(=O)(=O)C3CC3)c(-c3ccc[nH]c3=O)c3c4occc4ccc32)c(C)c1 [Compound 152] | < 25 | < 500 | 
25 | CS(=O)(=O)NC(=O)c1c(-c2ccc[nH]c2=O)c2c3occc3c(F)cc2n1Cc1cc(C(N)=O)ccc1F [Compound 175] | < 25 | < 500 | 
26 | NC(=O)c1cc(Cn2c(C(=O)O)c(-c3ccc[nH]c3=O)c3c4occc4c(F)cc32)cs1 [Compound 97] | < 25 | < 500 | 
27 | CCc1coc2c1ccc1c2c(-c2ccc[nH]c2=O)c(C(=O)O)n1Cc1ccccc1F [Compound 43] | > 100 | > 1500 | 
28 | O=C(O)c1c(-c2ccc[nH]c2=O)c2c3ccoc3ccc2n1Cc1cc(F)ccc1F [Compound 40] | 25 to 100 | > 1500 | 
29 | O=c1[nH]cccc1-c1c(C2=NS(=O)(=O)c3ccccc3N2)n(Cc2ccccc2F)c2cc(F)c3ccoc3c12 [Compound 184] | < 25 | < 500 | 
30 | O=C(NS(=O)(=O)C1CC1)c1c(-c2ccc[nH]c2=O)c2c3occc3c(F)cc2n1Cc1cc(Cl)nc2ccccc12 [Compound 210] | < 25 | 500 to 1500 | 
31 | Nc1ccccc1S(=O)(=O)NC(=O)c1c(-c2ccc[nH]c2=O)c2c3occc3c(F)cc2n1Cc1ccccc1F [Compound 202] | < 25 | < 500 | 
32 | CCc1coc2c1ccc1c2c(-c2ccc[nH]c2=O)c(C(=O)O)n1Cc1cc(F)ccc1F [Compound 24] | > 100 | > 1500 | 
33 | Cc1c[nH]c(=O)cc1Cn1c(C(=O)O)c(-c2ccc[nH]c2=O)c2c3occc3c(F)cc21 [Compound 83] | < 25 | < 500 | 
34 | Nc1n[nH]c2ccc(Cn3c(C(=O)O)c(-c4ccc[nH]c4=O)c4c5occc5c(F)cc43)cc12 [Compound 100] | < 25 | < 500 | 
35 | Cc1ccc2cc(Cn3c(C(=O)O)c(-c4ccc[nH]c4=O)c4c5occc5c(F)cc43)c(Cl)nc2c1 [Compound 139] | < 25 | < 500 | 
36 | O=C(O)c1c(-c2ccc[nH]c2=O)c2c3ncsc3ccc2n1Cc1ccc(F)cc1F [Compound 17] | < 25 | > 1500 | 
37 | O=C(NS(=O)(=O)C1CC1)c1c(-c2ccc[nH]c2=O)c2c3occc3c(F)cc2n1Cc1cc2c(=O)[nH]cnc2cc1F [Compound 212] |  | < 500 | < 25
